Measurements published in article PMC8379256, “A xanthene derivative, DS20060511, attenuates glucose intolerance by inducing skeletal muscle-specific GLUT4 translocation in mice” (Communications Biology, 2021).
Several values for one entry are separate records, joined by “and”; a condition that tells them apart may be missing. Identical values can stand only once.

Tested on: C57BL/6 mice
Experiment: Indirect calorimetry and exercise endurance under stepwise treadmill running
Assay type: in vivo, mouse
Conditions: 30 mg/kg; for O2 Consumption (VO2) / Respiratory quotient / CO2 Production (VCO2): DS20060511 30 mg/kg, individual mice 1-7, Fig. 5a
Protocol: The mice were acclimatized to the treadmill by allowing them to run at 10 m min^−1 for 10 min on the day before the test. On the day of the test, the mice received oral administration of 30 mg kg^−1 of DS20060511 or vehicle 15 min before they were made to run. The treadmill was started at a velocity of 10 m min^−1, with the speed increased stepwise by 2 m min^−1 every 3 min, to assess the exercise endurance capacity as described previously. Measurements of the oxygen consumption (VO2) and exhaled carbon dioxide (VCO2) under treadmill running were conducted with the ARCO-2000 magnetic-type mass spectrometric calorimeter (ARCO System, Kashiwa, Japan) connected to the treadmill chamber (MB-2000, ARCO System). The RER was calculated as the VCO2/VO2 ratio and the substrate utilization rates were calculated using Frayn’s formula[51]: rate of glucose oxidation = 4.585VCO2 − 3.226VO2; rate of fat oxidation = 1.695VO2 − 1.701VCO2. The exercise endurance capacity under treadmill running was determined by measuring the time from the start to the time until the mice ceased to run because of exhaustion, which was defined as remaining on the shocker plate for more than 10 sec. Immediately after the exercise, the blood glucose and lactate levels were measured using Glutest Every and Lactate Pro2 (ARKRAY, Kyoto, Japan), respectively, in blood samples collected from the tail vein.

Compound: COc1ccc2c(C)c(C(=O)O)ccc2c1C1C2=C(CC(C)(C)CC2=O)OC2=C1C(=O)CC(C)(C)C2 [DS20060511]
- O2 Consumption (VO2) (2 min): 108.3 ml/min/kg and 99.5 ml/min/kg and 86.9 ml/min/kg and 90.3 ml/min/kg (2×) and 96.4 ml/min/kg and 122.1 ml/min/kg
- Respiratory quotient (2 min): 0.76 (2×) and 0.78 and 0.75 and 0.82 (2×) and 0.79
- CO2 Production (VCO2) (3 min): 92.0 mL/min/kg and 71.1 mL/min/kg and 77.7 mL/min/kg and 83.7 mL/min/kg and 70.1 mL/min/kg and 74.8 mL/min/kg and 73.0 mL/min/kg
- O2 Consumption (VO2) (3 min): 103.2 mL/min/kg and 101.7 mL/min/kg and 88.1 mL/min/kg and 95.2 mL/min/kg and 94.7 mL/min/kg and 120.2 mL/min/kg and 89.5 mL/min/kg
- Respiratory quotient (3 min): 0.77 (2×) and 0.79 (2×) and 0.75 and 0.82 and 0.80
- CO2 Production (VCO2) (4 min): 90.3 mL/min/kg and 73.1 mL/min/kg and 78.3 mL/min/kg and 89.7 mL/min/kg and 70.1 mL/min/kg and 72.9 mL/min/kg and 72.1 mL/min/kg
- O2 Consumption (VO2) (4 min): 103.7 ml/min/kg and 110.0 ml/min/kg and 106.3 ml/min/kg and 93.1 ml/min/kg (2×) and 117.2 ml/min/kg and 90.4 ml/min/kg
- Respiratory quotient (4 min): 0.77 (2×) and 0.81 (2×) and 0.75 and 0.66 and 0.78
- CO2 Production (VCO2) (5 min): 91.5 mL/min/kg and 72.5 mL/min/kg and 78.6 mL/min/kg and 85.8 mL/min/kg and 66.5 mL/min/kg and 73.8 mL/min/kg and 71.7 mL/min/kg
- O2 Consumption (VO2) (5 min): 103.7 mL/min/kg and 103.8 mL/min/kg and 83.5 mL/min/kg and 95.6 mL/min/kg and 90.5 mL/min/kg and 116.5 mL/min/kg and 90.3 mL/min/kg
- Respiratory quotient (5 min): 0.78 and 0.80 (2×) and 0.76 and 0.83 and 0.77 and 0.79
- CO2 Production (VCO2) (6 min): 87.9 mL/min/kg and 70.6 mL/min/kg and 76.9 mL/min/kg and 85.9 mL/min/kg and 73.0 mL/min/kg and 71.8 mL/min/kg and 71.2 mL/min/kg
- O2 Consumption (VO2) (6 min): 100.7 mL/min/kg and 102.8 mL/min/kg and 90.9 mL/min/kg and 93.7 mL/min/kg and 92.0 mL/min/kg and 112.2 mL/min/kg and 87.4 mL/min/kg
- Respiratory quotient (6 min): 0.78 and 0.81 and 0.76 and 0.84 and 0.80 and 0.77 (2×)
- CO2 Production (VCO2) (7 min): 93.5 mL/min/kg and 69.9 mL/min/kg and 76.8 mL/min/kg and 86.5 mL/min/kg and 72.9 mL/min/kg and 71.9 mL/min/kg and 70.2 mL/min/kg
- O2 Consumption (VO2) (7 min): 101.1 mL/min/kg and 105.0 mL/min/kg and 90.7 mL/min/kg and 93.7 mL/min/kg and 90.0 mL/min/kg and 120.2 mL/min/kg and 86.5 mL/min/kg
- Respiratory quotient (7 min): 0.78 (2×) and 0.81 and 0.76 and 0.82 and 0.80 and 0.77
- CO2 Production (VCO2) (8 min): 88.9 mL/min/kg and 75.0 mL/min/kg and 78.4 mL/min/kg and 85.8 mL/min/kg and 72.7 mL/min/kg and 72.1 mL/min/kg and 69.7 mL/min/kg
- O2 Consumption (VO2) (8 min): 103.5 mL/min/kg and 107.7 mL/min/kg and 91.4 mL/min/kg and 93.1 mL/min/kg and 101.3 mL/min/kg and 113.1 mL/min/kg and 92.7 mL/min/kg
- Respiratory quotient (8 min): 0.79 and 0.81 and 0.76 and 0.80 (2×) and 0.77 and 0.69
- CO2 Production (VCO2) (9 min): 95.5 mL/min/kg and 73.8 mL/min/kg and 77.9 mL/min/kg and 84.5 mL/min/kg and 74.4 mL/min/kg and 71.2 mL/min/kg and 78.8 mL/min/kg
- O2 Consumption (VO2) (9 min): 100.3 mL/min/kg and 103.6 mL/min/kg and 93.8 mL/min/kg and 94.2 mL/min/kg and 95.0 mL/min/kg and 118.5 mL/min/kg and 89.8 mL/min/kg
- Respiratory quotient (9 min): 0.81 and 0.82 (2×) and 0.78 and 0.79 and 0.76 and 0.83
- CO2 Production (VCO2) (10 min): 92.6 ml/min/kg and 70.7 ml/min/kg and 80.1 ml/min/kg and 84.2 ml/min/kg (2×) and 72.0 ml/min/kg and 74.9 ml/min/kg
- O2 Consumption (VO2) (10 min): 104.6 mL/min/kg and 102.1 mL/min/kg and 90.2 mL/min/kg and 95.3 mL/min/kg and 98.2 mL/min/kg and 113.5 mL/min/kg and 87.0 mL/min/kg
- Respiratory quotient (10 min): 0.82 (2×) and 0.81 and 0.77 and 0.80 and 0.79 and 0.86
- CO2 Production (VCO2) (11 min): 96.0 ml/min/kg and 73.8 ml/min/kg and 80.9 ml/min/kg and 84.3 ml/min/kg and 71.1 ml/min/kg (2×) and 86.5 ml/min/kg
- O2 Consumption (VO2) (11 min): 106.8 mL/min/kg and 102.9 mL/min/kg and 84.9 mL/min/kg and 92.0 mL/min/kg and 101.1 mL/min/kg and 115.1 mL/min/kg and 89.8 mL/min/kg
- Respiratory quotient (11 min): 0.83 and 0.82 (2×) and 0.76 and 0.84 and 0.77 and 0.85
- CO2 Production (VCO2) (12 min): 97.3 mL/min/kg and 74.3 mL/min/kg and 80.0 mL/min/kg and 93.2 mL/min/kg and 68.6 mL/min/kg and 70.0 mL/min/kg and 89.3 mL/min/kg
- O2 Consumption (VO2) (12 min): 103.8 mL/min/kg and 112.5 mL/min/kg and 85.8 mL/min/kg and 91.1 mL/min/kg and 105.1 mL/min/kg and 120.4 mL/min/kg and 90.9 mL/min/kg
- Respiratory quotient (12 min): 0.81 and 0.82 and 0.77 (2×) and 0.83 and 0.80 and 0.85
- CO2 Production (VCO2) (13 min): 101.9 mL/min/kg and 82.3 mL/min/kg and 78.0 mL/min/kg and 86.9 mL/min/kg and 68.9 mL/min/kg and 69.6 mL/min/kg and 93.3 mL/min/kg
- O2 Consumption (VO2) (13 min): 102.8 mL/min/kg and 102.5 mL/min/kg and 86.7 mL/min/kg and 90.5 mL/min/kg and 109.1 mL/min/kg and 127.7 mL/min/kg and 94.9 mL/min/kg
- Respiratory quotient (13 min): 0.80 and 0.87 and 0.76 and 0.85 and 0.79 and 0.77 and 0.86
- CO2 Production (VCO2) (14 min): 100.6 mL/min/kg and 80.5 mL/min/kg and 79.5 mL/min/kg and 84.1 mL/min/kg and 69.5 mL/min/kg and 69.8 mL/min/kg and 95.1 mL/min/kg
- O2 Consumption (VO2) (14 min): 102.1 mL/min/kg and 101.4 mL/min/kg and 88.4 mL/min/kg and 91.3 mL/min/kg and 109.8 mL/min/kg and 125.1 mL/min/kg and 95.0 mL/min/kg
- Respiratory quotient (14 min): 0.80 and 0.85 and 0.78 and 0.83 and 0.79 and 0.76 and 0.87
- CO2 Production (VCO2) (15 min): 92.4 mL/min/kg and 82.1 mL/min/kg and 81.9 mL/min/kg and 83.7 mL/min/kg and 69.2 mL/min/kg and 69.5 mL/min/kg and 105.4 mL/min/kg
- O2 Consumption (VO2) (15 min): 105.0 mL/min/kg and 100.1 mL/min/kg and 87.5 mL/min/kg and 93.8 mL/min/kg and 120.2 mL/min/kg and 115.1 mL/min/kg and 96.2 mL/min/kg
- Respiratory quotient (15 min): 0.80 and 0.85 and 0.78 and 0.84 and 0.79 and 0.74 and 0.88
- CO2 Production (VCO2) (16 min): 98.8 mL/min/kg and 82.5 mL/min/kg
- O2 Consumption (VO2) (16 min): 103.6 mL/min/kg and 108.6 mL/min/kg
- Respiratory quotient (16 min): 0.79 and 0.85
- Blood glucose (exercise tolerance test, individual mice): 124 mg/dL and 146 mg/dL and 95 mg/dL and 96 mg/dL and 149 mg/dL and 133 mg/dL and 119 mg/dL
